# Laboratory results as given in PubChem BioAssay (NCI).
#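 Five concentrations, 48 hours, 96-well plates. GI50: concentration for 50% inhibition of growth. TGI denotes the concentration required for complete inhibition of growth.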
# What was measured:
# Experiment in all cases: NCI anticancer screen, dose series, 48 h
# CCRF-CEM leukemia = test system: CCRF-CEM leukemia
# EKVX NSCLC = test system: EKVX NSCLC
# DLD-1 colon = test system: DLD-1 colon
# IGROV1 ovarian = test system: IGROV1 ovarian
# OVCAR-5 ovarian = test system: OVCAR-5 ovarian
# HCT-116 colon = test system: HCT-116 colon
# OVCAR-8 ovarian = test system: OVCAR-8 ovarian
# SNB-78 CNS = test system: SNB-78 CNS
# NCI-H23 lung = test system: NCI-H23 lung
# SK-MEL-2 melanoma = test system: SK-MEL-2 melanoma
# SK-MEL-28 melanoma = test system: SK-MEL-28 melanoma
# SN12C renal = test system: SN12C renal
# M14 melanoma = test system: M14 melanoma
# LOX IMVI melanoma = test system: LOX IMVI melanoma
# RPMI-8226 leukemia = test system: RPMI-8226 leukemia
# NCI-H522 lung = test system: NCI-H522 lung
# UO-31 renal = test system: UO-31 renal
# A498 renal = test system: A498 renal
# HOP-92 NSCLC = test system: HOP-92 NSCLC
# A549 NSCLC = test system: A549 NSCLC
# KM12 colon = test system: KM12 colon
# SW-620 colon = test system: SW-620 colon
# SK-MEL-5 melanoma = test system: SK-MEL-5 melanoma
# HCC-2998 colon = test system: HCC-2998 colon
# U251 CNS = test system: U251 CNS
# TK-10 renal = test system: TK-10 renal
# MOLT-4 leukemia = test system: MOLT-4 leukemia
# NCI-H460 lung = test system: NCI-H460 lung
# HT29 colon = test system: HT29 colon
# UACC-257 melanoma = test system: UACC-257 melanoma
# LXFL 529 NSCLC = test system: LXFL 529 NSCLC
# SF-295 CNS = test system: SF-295 CNS
# MALME-3M melanoma = test system: MALME-3M melanoma
# HCT-15 colon = test system: HCT-15 colon
# SNB-19 CNS = test system: SNB-19 CNS
# UACC-62 melanoma = test system: UACC-62 melanoma
# KM20L2 colon = test system: KM20L2 colon
# OVCAR-3 ovarian = test system: OVCAR-3 ovarian
# SF-268 CNS = test system: SF-268 CNS
# SF-539 CNS = test system: SF-539 CNS
# SK-OV-3 ovarian = test system: SK-OV-3 ovarian
# COLO 205 colon = test system: COLO 205 colon
# 786-0 renal = test system: 786-0 renal
# HOP-62 NSCLC = test system: HOP-62 NSCLC
# K-562 leukemia = test system: K-562 leukemia
# ACHN renal = test system: ACHN renal
# SNB-75 CNS = test system: SNB-75 CNS
# OVCAR-4 ovarian = test system: OVCAR-4 ovarian
# SR leukemia = test system: SR leukemia
# CAKI-1 renal = test system: CAKI-1 renal
# NCI-H226 lung = test system: NCI-H226 lung
# DMS 273 small cell lung = test system: DMS 273 small cell lung
# HL-60(TB) leukemia = test system: HL-60(TB) leukemia
# DMS 114 small cell lung = test system: DMS 114 small cell lung
# RXF 393 renal = test system: RXF 393 renal
# T-47D breast = test system: T-47D breast
# BT-549 breast = test system: BT-549 breast
# MDA-N = test system: MDA-N
# MDA-MB-435 = test system: MDA-MB-435
# DU-145 prostate = test system: DU-145 prostate
# NCI/ADR-RES ovarian = test system: NCI/ADR-RES ovarian
# HS 578T breast = test system: HS 578T breast
# MCF7 breast = test system: MCF7 breast
# PC-3 prostate = test system: PC-3 prostate
# MDA-MB-231 breast = test system: MDA-MB-231 breast
compound,measurement,setting,value
NCCN.NCCN.O=C([O-])CCl.O=C([O-])CCl.[Co+3].[O-][Cl+3]([O-])([O-])[O-],GI50,CCRF-CEM leukemia,> 100 µM
same,TGI,CCRF-CEM leukemia,> 100 µM
same,GI50,EKVX NSCLC,> 100 µM
same,TGI,EKVX NSCLC,> 100 µM
same,GI50,DLD-1 colon,> 100 µM
same,TGI,DLD-1 colon,> 100 µM
same,GI50,IGROV1 ovarian,> 100 µM
same,TGI,IGROV1 ovarian,> 100 µM
same,GI50,OVCAR-5 ovarian,> 100 µM
same,TGI,OVCAR-5 ovarian,> 100 µM
same,GI50,HCT-116 colon,> 100 µM
same,TGI,HCT-116 colon,> 100 µM
same,GI50,OVCAR-8 ovarian,> 100 µM
same,TGI,OVCAR-8 ovarian,> 100 µM
same,GI50,SNB-78 CNS,> 100 µM
same,TGI,SNB-78 CNS,> 100 µM
same,GI50,NCI-H23 lung,> 100 µM
same,TGI,NCI-H23 lung,> 100 µM
same,GI50,SK-MEL-2 melanoma,> 100 µM
same,TGI,SK-MEL-2 melanoma,> 100 µM
same,GI50,SK-MEL-28 melanoma,> 100 µM
same,TGI,SK-MEL-28 melanoma,> 100 µM
same,GI50,SN12C renal,> 100 µM
same,TGI,SN12C renal,> 100 µM
same,GI50,M14 melanoma,> 100 µM
same,TGI,M14 melanoma,> 100 µM
same,GI50,LOX IMVI melanoma,> 100 µM
same,TGI,LOX IMVI melanoma,> 100 µM
same,GI50,RPMI-8226 leukemia,> 100 µM
same,TGI,RPMI-8226 leukemia,> 100 µM
same,GI50,NCI-H522 lung,> 100 µM
same,TGI,NCI-H522 lung,> 100 µM
same,GI50,UO-31 renal,> 100 µM
same,TGI,UO-31 renal,> 100 µM
same,GI50,A498 renal,> 100 µM
same,TGI,A498 renal,> 100 µM
same,GI50,HOP-92 NSCLC,> 100 µM
same,TGI,HOP-92 NSCLC,> 100 µM
same,GI50,A549 NSCLC,> 100 µM
same,TGI,A549 NSCLC,> 100 µM
same,GI50,KM12 colon,> 100 µM
same,TGI,KM12 colon,> 100 µM
same,GI50,SW-620 colon,> 100 µM
same,TGI,SW-620 colon,> 100 µM
same,GI50,SK-MEL-5 melanoma,> 100 µM
same,TGI,SK-MEL-5 melanoma,> 100 µM
same,GI50,HCC-2998 colon,> 100 µM
same,TGI,HCC-2998 colon,> 100 µM
same,GI50,U251 CNS,> 100 µM
same,TGI,U251 CNS,> 100 µM
same,GI50,TK-10 renal,> 100 µM
same,TGI,TK-10 renal,> 100 µM
same,GI50,MOLT-4 leukemia,> 100 µM
same,TGI,MOLT-4 leukemia,> 100 µM
same,GI50,NCI-H460 lung,> 100 µM
same,TGI,NCI-H460 lung,> 100 µM
same,GI50,HT29 colon,> 100 µM
same,TGI,HT29 colon,> 100 µM
same,GI50,UACC-257 melanoma,> 100 µM
same,TGI,UACC-257 melanoma,> 100 µM
same,GI50,LXFL 529 NSCLC,> 100 µM
same,TGI,LXFL 529 NSCLC,> 100 µM
same,GI50,SF-295 CNS,> 100 µM
same,TGI,SF-295 CNS,> 100 µM
same,GI50,MALME-3M melanoma,> 100 µM
same,TGI,MALME-3M melanoma,> 100 µM
same,GI50,HCT-15 colon,> 100 µM
same,TGI,HCT-15 colon,> 100 µM
same,GI50,SNB-19 CNS,> 100 µM
same,TGI,SNB-19 CNS,> 100 µM
same,GI50,UACC-62 melanoma,> 100 µM
same,TGI,UACC-62 melanoma,> 100 µM
same,GI50,KM20L2 colon,> 100 µM
same,TGI,KM20L2 colon,> 100 µM
same,GI50,OVCAR-3 ovarian,> 100 µM
same,TGI,OVCAR-3 ovarian,> 100 µM
same,GI50,SF-268 CNS,> 100 µM
same,TGI,SF-268 CNS,> 100 µM
same,GI50,SF-539 CNS,> 100 µM
same,TGI,SF-539 CNS,> 100 µM
same,GI50,SK-OV-3 ovarian,> 100 µM
same,TGI,SK-OV-3 ovarian,> 100 µM
same,GI50,COLO 205 colon,> 100 µM
same,TGI,COLO 205 colon,> 100 µM
same,GI50,786-0 renal,> 100 µM
same,TGI,786-0 renal,> 100 µM
same,GI50,HOP-62 NSCLC,> 100 µM
same,TGI,HOP-62 NSCLC,> 100 µM
same,GI50,K-562 leukemia,> 100 µM
same,TGI,K-562 leukemia,> 100 µM
same,GI50,ACHN renal,> 100 µM
same,TGI,ACHN renal,> 100 µM
same,GI50,SNB-75 CNS,74.7 µM
same,TGI,SNB-75 CNS,> 100 µM
same,GI50,OVCAR-4 ovarian,> 100 µM
same,TGI,OVCAR-4 ovarian,> 100 µM
O=C(O)CCSC(=O)Nc1ccccc1F,TGI,CCRF-CEM leukemia,> 100 µM
same,TGI,SR leukemia,> 100 µM
same,TGI,EKVX NSCLC,> 100 µM
same,TGI,OVCAR-5 ovarian,> 100 µM
same,TGI,HCT-116 colon,> 100 µM
same,TGI,CAKI-1 renal,> 100 µM
same,TGI,SNB-78 CNS,> 100 µM
same,TGI,NCI-H23 lung,> 100 µM
same,TGI,SK-MEL-2 melanoma,> 100 µM
same,TGI,NCI-H226 lung,> 100 µM
same,TGI,SK-MEL-28 melanoma,> 100 µM
same,TGI,SN12C renal,> 100 µM
same,TGI,M14 melanoma,> 100 µM
same,TGI,LOX IMVI melanoma,> 100 µM
same,TGI,RPMI-8226 leukemia,> 100 µM
same,TGI,NCI-H522 lung,> 100 µM
same,TGI,UO-31 renal,> 100 µM
same,TGI,A498 renal,> 100 µM
same,TGI,A549 NSCLC,> 100 µM
same,TGI,DMS 273 small cell lung,> 100 µM
same,TGI,KM12 colon,> 100 µM
same,TGI,SW-620 colon,> 100 µM
same,TGI,HCC-2998 colon,> 100 µM
same,TGI,U251 CNS,> 100 µM
same,TGI,TK-10 renal,> 100 µM
same,TGI,MOLT-4 leukemia,> 100 µM
same,TGI,HL-60(TB) leukemia,> 100 µM
same,TGI,NCI-H460 lung,> 100 µM
same,TGI,DMS 114 small cell lung,> 100 µM
same,TGI,HT29 colon,> 100 µM
same,TGI,RXF 393 renal,> 100 µM
same,TGI,LXFL 529 NSCLC,> 100 µM
same,TGI,HCT-15 colon,> 100 µM
same,TGI,SNB-19 CNS,> 100 µM
same,TGI,KM20L2 colon,> 100 µM
same,TGI,OVCAR-3 ovarian,> 100 µM
same,TGI,SF-268 CNS,> 100 µM
same,TGI,SF-539 CNS,> 100 µM
same,TGI,COLO 205 colon,> 100 µM
same,TGI,786-0 renal,> 100 µM
same,TGI,HOP-62 NSCLC,> 100 µM
same,TGI,K-562 leukemia,> 100 µM
same,TGI,ACHN renal,> 100 µM
same,TGI,OVCAR-4 ovarian,> 100 µM
CCN(C(C)=O)c1cnc(/C=N/NC(N)=S)c2ccccc12,TGI,CCRF-CEM leukemia,> 100 µM
same,TGI,SR leukemia,> 65.8 µM
same,TGI,EKVX NSCLC,> 100 µM
same,TGI,IGROV1 ovarian,> 100 µM
same,TGI,OVCAR-5 ovarian,> 100 µM
same,TGI,HCT-116 colon,> 100 µM
same,TGI,OVCAR-8 ovarian,> 34.6 µM
same,TGI,CAKI-1 renal,> 51.9 µM
same,TGI,NCI-H23 lung,> 100 µM
same,TGI,SK-MEL-2 melanoma,> 100 µM
same,TGI,NCI-H226 lung,> 100 µM
same,TGI,SK-MEL-28 melanoma,> 100 µM
same,TGI,T-47D breast,> 100 µM
same,TGI,SN12C renal,> 57.6 µM
same,TGI,M14 melanoma,> 30.7 µM
same,TGI,LOX IMVI melanoma,10.1 µM
same,TGI,RPMI-8226 leukemia,> 100 µM
same,TGI,BT-549 breast,> 31.1 µM
same,TGI,MDA-N,> 100 µM
same,TGI,NCI-H522 lung,> 36.2 µM
same,TGI,UO-31 renal,7.85 µM
same,TGI,A498 renal,> 91.6 µM
same,TGI,HOP-92 NSCLC,> 100 µM
same,TGI,A549 NSCLC,> 88.3 µM
same,TGI,KM12 colon,> 100 µM
same,TGI,SW-620 colon,> 100 µM
same,TGI,MDA-MB-435,> 100 µM
same,TGI,SK-MEL-5 melanoma,> 67.1 µM
same,TGI,HCC-2998 colon,> 100 µM
same,TGI,DU-145 prostate,> 25 µM
same,TGI,U251 CNS,> 100 µM
same,TGI,TK-10 renal,> 100 µM
same,TGI,NCI/ADR-RES ovarian,58.6 µM
same,TGI,MOLT-4 leukemia,> 31.5 µM
same,TGI,HL-60(TB) leukemia,> 28.5 µM
same,TGI,NCI-H460 lung,> 39.1 µM
same,TGI,HT29 colon,> 100 µM
same,TGI,HS 578T breast,> 100 µM
same,TGI,RXF 393 renal,> 100 µM
same,TGI,UACC-257 melanoma,> 100 µM
same,TGI,SF-295 CNS,> 68.9 µM
same,TGI,MALME-3M melanoma,> 100 µM
same,TGI,MCF7 breast,> 23.8 µM
same,TGI,PC-3 prostate,> 100 µM
same,TGI,HCT-15 colon,> 100 µM
same,TGI,SNB-19 CNS,> 100 µM
same,TGI,UACC-62 melanoma,11 µM
same,TGI,MDA-MB-231 breast,> 100 µM
same,TGI,OVCAR-3 ovarian,> 100 µM
same,TGI,SF-268 CNS,> 100 µM
same,TGI,SF-539 CNS,13.6 µM
same,TGI,SK-OV-3 ovarian,> 100 µM
same,TGI,COLO 205 colon,> 100 µM
same,TGI,786-0 renal,> 26.6 µM
same,TGI,HOP-62 NSCLC,> 60.1 µM
same,TGI,K-562 leukemia,> 100 µM
same,TGI,ACHN renal,> 22.4 µM
same,TGI,SNB-75 CNS,> 100 µM
same,TGI,OVCAR-4 ovarian,> 100 µM
